Among the data in PubChem BioAssay (NCI) are TGI and GI50 values, retold here.

Holding throughout (test): NCI-60 cell line screen, 48 h
Assay [1] deals with DMS 114 small cell lung.
Assay [2] concerns SNB-78 CNS.
The test system of assay [3] is OVCAR-5 ovarian.
Assay [4] relates to SK-MEL-5 melanoma.
Assay [5] has as its system NCI-H23 lung.
For assay [6], the system named is SK-OV-3 ovarian.
Assay [7] concerns LXFL 529 NSCLC.
Assay [8] concerns HL-60(TB) leukemia.
The test system of assay [9] is TK-10 renal.
Assay [10] deals with DMS 273 small cell lung.
The subject of assay [11] is SNB-75 CNS.
Assay [12] deals with MDA-MB-231 breast.

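Assay format: 96-well plates, 48-hour exposure. Abbreviation: GI50, concentration required for 50% inhibition of growth. At the TGI there is no net growth.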 Some results are limits rather than exact numbers.

Regarding `CCOC(=O)C(=O)Nc1cccc(C)c1C`, the TGI in assay [1], in assay [2], in assay [3], in [4], in assay [5] and in [6] was > 100 µM in each case. Further, the TGI in [7], in assay [8], in assay [9], in [10] and in assay [11] was > 100 µM in each case.
For `Cc1nc(N(CCO)CCO)c2sc(=S)n(-c3ccccc3)c2n1`, the TGI in assay [3], in assay [4], in assay [5], in [6], in assay [7] and in assay [8] was > 100 µM each time. The TGI in assay [9] and in assay [11] was > 100 µM in each case.
On to `COC(=O)C1=C(O)C(C(=O)OC)[C@@]2(O)[C@@H](C(=O)OC)CC[C@@H]1[C@@H]2C(=O)OC` (stereo partly specified), for which the TGI turned out to be 70.2 µM in assay [3]; 56.6 µM in assay [5]; 34.6 µM in [6]; 83.5 µM in assay [12]; 76.6 µM in [8]; 93.4 µM in assay [9]. In assay [11], this molecule came in with a TGI of 64.8 µM.
Regarding `BrC1=CN2C[n+]3cc(Br)c4ccccc4c3N=C2c2ccccc21`, the TGI in [3] was found to be 48.7 µM; in assay [4], 12.8 µM; in [5], 56.4 µM; in [6] it was 51.8 µM; in assay [12], 34.6 µM; in assay [8], 58.5 µM. Also, the TGI in [9] was 55 µM; in [11] it was 10.9 µM.
As for `COc1cc(C2S/C(=C/c3ccccc3)C(=O)N2c2ccccc2Cl)cc(OC)c1OC` (stereo unspecified), the TGI in [3] is > 100 µM; in assay [4], 75.1 µM; in assay [5] it was > 100 µM; in assay [6], > 100 µM; in assay [12], 67.3 µM; in assay [9], > 100 µM. For the same molecule, the TGI in assay [11] worked out at 29.6 µM.
`CN(CCO)/N=N/c1nc[nH]c1C(N)=O`: the TGI in [1], in [2], in assay [3], in assay [4], in assay [5] and in [6] was > 100 µM each time. Moreover, the TGI in assay [7], in assay [8], in assay [9], in [10] and in assay [11] was > 100 µM in each case.
Consider `C/C([O-])=C(/c1nc(-c2ccc([N+](=O)[O-])o2)no1)[n+]1cc(C)ccc1C`, for which the TGI was 38.9 µM in assay [1]; > 100 µM in [2]; 37.5 µM in [3]; 23.4 µM in assay [4]; 24.9 µM in assay [5]; > 79.3 µM in [6]. Further, the TGI is 31.6 µM in assay [8], 26.1 µM in [10] and > 49.9 µM in [11].
`Cc1ccc(S(=O)(=O)Nc2cc(Sc3ccccc3)c(O)c3ccccc23)cc1`: the GI50 was 7.11 µM in [3]; 3.57 µM in [4]; 4.44 µM in [5]; 15.6 µM in assay [6]; 2.43 µM in [12]; 1.57 µM in assay [8]. Besides, the values for the GI50 in assay [9] and in assay [11] were 17.5 µM and 12.9 µM, respectively. Besides, the TGI worked out at 21.3 µM in assay [3]; 13.1 µM in [4]; 22 µM in [5]; 29.8 µM in [6]; 6.16 µM in assay [12]; 4.13 µM in [8]. In addition, the TGI in assay [9] came to 31.7 µM; in assay [11], 25.5 µM.
For `COc1cc(Cc2ccc3c(c2C#N)N(C)c2ccccc2S3)cc(OC)c1OC`, the TGI in assay [1], in assay [2], in [3], in assay [5], in [6] and in assay [7] was > 100 µM in each case. Moreover, the TGI in [8], in assay [9] and in assay [10] was > 100 µM in each case.
